This is an account of results in US7169778B2, “Pteridinones as kinase inhibitors” (Warner-Lambert Company, priority 1999, dated 2007).

What is called IC50 is the concentration that gives 50% inhibition. As usually defined, the melting point is the temperature of the solid-liquid transition.

Series [1] addresses N-terminal truncated Wee 1 (Homo sapiens, UniProt P30291). Put plainly: Wee 1 OY kinase assay. As to conditions: read-out: WEE1OY IC50. The format is biochemical. The method, then:
These kinase assays are carried out on 96-well filter plates (Millpore, Cat. MADPN0B50) in 50 μL kinase assay buffer (50 mM Tris, pH 8.0, 10 mM NaCl, 10 mM MgCl2, 10 μM ATP with 0.25 μCi [r-32P]ATP, 1 mM DTT) with 0.1 μg purified N-terminal truncated Wee 1 and 6 μg poly(Orn, Tyr)4:1 (Sigma, P4534). The assay is started by adding ATP and incubating at room temperature for 20 minutes with shaking. The reactions are terminated by adding 50 μL ice-cold 20% TCA (trichloracetic acid) with 0.1 M sodium pyrophosphate and shaking the resultant mixture for 1 minute. The plate is then incubated at 4° C. for 1 hour to allow protein to precipitate. These plates are then washed 5 times with 200 μL ice-cold 10% TCA and with 0.1 M sodium pyrophosphate per wash. Twenty-five microliters scintillation liquid is then added to each well, and the plate is counted in Wallac's MicroBeta counter 1450.

Series [2] deals with cdk2/cyclinE (Homo sapiens, UniProt P24941). Put plainly: Cyclin-dependent kinase assay cdk2/cyclinE. As to conditions: cyclin dependent kinase 2/cyclin E complex; read-out: CDK2E IC50. The format is biochemical. The method, then: (§1) All components except the ATP were added to the wells, and the plate was placed on a plate mixer for 2 minutes. The reaction was begun by addition of [^32P]ATP, and the plate was incubated at 25° C. for 15 minutes. The reaction was terminated by addition of 0.1 mL of 20% TCA. The plate was kept at 4° C. for at least 1 hour to allow the substrate to precipitate. The wells were then washed five times with 0.2 mL of 10% TCA and ^32P incorporation determined using a beta plate counter (Wallac Inc., Gaithersburg, Md.).

Series [3] addresses cdk2/cyclinA (Homo sapiens, UniProt P24941). The experiment in a line: Cyclin-dependent kinase assay cdk2/cyclinA. The format is biochemical. As to conditions: cyclin dependent kinase 2/cyclin A complex; read-out: CDK2A IC50. The method, then:
as §1

Series [4] addresses C-src kinase (Homo sapiens, UniProt P12931). The experiment in a line: C-src kinase assay. It counts as biochemical. The method, then:
C-src kinase was purified from baculovirus infected insect cell lysates using an antipeptide monoclonal antibody directed against the N-terminal amino acids (amino acids 2–17) of c-src. The antibody, covalently linked to 0.65 μm latex beads, was added to a suspension of insect cell lysis buffer comprised of 150 mM NaCl, 50 mM Tris pH 7.5, 1 mM DTT, 1% NP-40, 2 mM EGTA, 1 mM sodium vanadate, 1 mM PMSF, 1 μg/mL each of leupeptin, pepstatin, and aprotinin. Insect cell lysate containing c-src protein was incubated with these beads for 3 to 4 hours at 4° C. with rotation. At the end of the lysate incubation, the beads were rinsed three times in lysis buffer, resuspended in lysis buffer containing 10% glycerol, and frozen. These latex beads were thawed, rinsed three times in assay buffer (40 mM Tris, pH 7.5, 5 mM mgCl2) and suspended in the same buffer. In a Millipore 96-well plate with a 0.65 μm polyvinylidine membrane bottom were added the reaction components: 10 μL C-src beads, 10 μL of 2.5 mg/mL poly GluTyr substrate, 5 μM ATP containing 0.2 μCi labeled ^32P-ATP, 5 μL DMSO containing inhibitors or as a solvent control, and buffer to make the final volume 125 μL. The reaction was started at room temperature by addition of the ATP and quenched 10 minutes later by the addition of 125 μL of 30% TCA, 0.1 M sodium pyrophosphate for 5 minutes on ice. The plate was then filtered and the wells washed with two […] aliquots of 15% TCA, 0.1 M pyrophosphate. The filters were then punched, counted in a liquid scintillation counter, and the data examined for inhibitory activity in comparison to a known inhibitor such as erbstatin. The method is also described in J. Med. Chem., 1994;37:598–609.

The target in series [5] is T1, human FGF-1 (flg) receptor tyrosine kinase (Homo sapiens, UniProt P11362).
T1 construct: amplify a fragment of DNA that codes for the intracellular tyrosine kinase domain; made in house; host or cells: SF9 insect cells (baculovirus)
The experiment in a line: FGF receptor tyrosine kinase assay. It counts as biochemical. As to conditions: for inhibition at 5 µM: @ 5 (unit μm); for inhibition at 0.5 µM: @ 0.5 (unit μm). From the text: (§2) Full-length cDNAs for the mouse PDGF-β and human FGF-1 (flg) receptor tyrosine kinases were obtained from J. Escobedo and prepared as described in J. Biol. Chem., 1991;262:1482–1487. PCR primers were designed to amplify a fragment of DNA that codes for the intracellular tyrosine kinase domain. The fragment was inserted into a baculovirus vector, cotransfected with AcMNPV DNA, and the recombinant virus isolated. SF9 insect cells were infected with the virus to overexpress the protein, and the cell lysate was used for the assay. Assays were performed in 96-well plates (100 μL/incubation/well), and conditions were optimized to measure the incorporation of ^32P from γ^32P-ATP into a glutamate-tyrosine co-polymer substrate. Briefly, to each well was added 82.5 μL of incubation buffer containing 25 mM Hepes (pH 7.0), 150 mM NaCl, 0.1% Triton X-100, 0.2 mM PMSF, 0.2 mM Na3VO4, 10 mM MnCl2, and 750 μg/mL of Poly (4:1) glutamate-tyrosine followed by 2.5 μL of inhibitor and 5 μL of enzyme lysate (7.5 μg/μL FGF-TK or 6.0 μg/μL PDGF-TK) to initiate the reaction. Following a 10 minute incubation at 25° C., […] of γ^32P-ATP (0.4 μCi plus 50 μM ATP) was added to each well, and samples were incubated for an additional 10 minutes at 25° C. The reaction was terminated by the addition of 100 μL of 30% TCA containing 20 mM sodium pyrophosphate and precipitation of material onto glass fiber mats (Wallac). Filters were washed three times with 15% TCA containing 100 mM sodium pyrophosphate, and the radioactivity retained on the filters counted in a Wallac 1250 Betaplate reader. Nonspecific activity was defined as radioactivity retained on the filters following incubation of samples with buffer alone (no enzyme). Specific enzymatic activity (enzyme plus buffer) was defined as total activity minus nonspecific activity. The concentration of a compound that inhibited specific activity by 50% (IC50) was determined based on the inhibition curve.

For series [6], the target named is cdk4/cyclin D1 complex (Homo sapiens, UniProt P11802). The experiment in a line: Cyclin-dependent kinase 4 (CDK4) assay. It counts as biochemical. As to conditions: cyclin dependent kinase 4/cyclin D1 complex; read-out: CDK4D IC50. The method, then: Enzyme assays for IC50 determinations (Table 1) and kinetic evaluation were performed in 96-well filter plates (Millipore MADVN6550) The total volume was 0.1 mL containing a final concentration of 20 mM TRIS (tris[hydroxmethyl]aminomethane), at pH 7.4, 50 mM NaCl, 1 mM dithiothreitol, 10 mM mgCl2, 25 μM ATP containing 0.25 μCi of [^32P]ATP, 20 ng of cdk4/cyclin D1 complex, 1 μg of retinoblastoma and appropriate dilutions of a compound of the present invention. All components except the ATP were added to the wells, and the plate was placed on a plate mixer for 2 minutes. The reaction was started by adding [^32P]ATP and the plate incubated at 25° C. for 15 minutes. The reaction was terminated by addition of 0.1 mL of 20% TCA. The plate was kept at 4° C. for at least 1 hour to allow the substrate to precipitate. The wells were then washed five times with 0.2 mL of 10% TCA and ^32p incorporation determined with a beta plate counter (Wallac Inc., Gaithersburg, Md.).

Series [7] addresses T2, mouse PDGF-β receptor tyrosine kinase (Mus musculus, UniProt P05622).
T2 construct: amplify a fragment of DNA that codes for the intracellular tyrosine kinase domain; made in house; host or cells: SF9 insect cells (baculovirus)
Put plainly: PDGF receptor tyrosine kinase assay. The format is biochemical.
Source text: as §2

Series [8] has as its target cdc2/cyclinB (Homo sapiens, UniProt P06493). Put plainly: Cyclin-dependent kinase assay cdc2/cyclinB. It counts as biochemical. The following applies: cyclin dependent kinase 1/cyclin B complex; read-out: CDK1B IC50. As for the experimental part: as §1
Where [9] appears, read: read-out: FGF % @ concentration.

T2 sequence (P05622 599-961 limits assumed): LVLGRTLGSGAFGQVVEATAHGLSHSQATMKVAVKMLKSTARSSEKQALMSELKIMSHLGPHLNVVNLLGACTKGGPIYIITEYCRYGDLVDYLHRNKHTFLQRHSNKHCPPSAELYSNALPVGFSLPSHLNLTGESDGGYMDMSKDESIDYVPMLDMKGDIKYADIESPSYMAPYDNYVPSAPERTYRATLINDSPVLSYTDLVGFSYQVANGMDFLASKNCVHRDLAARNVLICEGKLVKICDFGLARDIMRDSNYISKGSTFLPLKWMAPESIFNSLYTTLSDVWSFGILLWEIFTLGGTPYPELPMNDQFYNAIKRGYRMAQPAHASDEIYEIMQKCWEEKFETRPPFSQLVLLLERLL
cdc2/cyclinB, sequence (P06493 whole entry, species assumed): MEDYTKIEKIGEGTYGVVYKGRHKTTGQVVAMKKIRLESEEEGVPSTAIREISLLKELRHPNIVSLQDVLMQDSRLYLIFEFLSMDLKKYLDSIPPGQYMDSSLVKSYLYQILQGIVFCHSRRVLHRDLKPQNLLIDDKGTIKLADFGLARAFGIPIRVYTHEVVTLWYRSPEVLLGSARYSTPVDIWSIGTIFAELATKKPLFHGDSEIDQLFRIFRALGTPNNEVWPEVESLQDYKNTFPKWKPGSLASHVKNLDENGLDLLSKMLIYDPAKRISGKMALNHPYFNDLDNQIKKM
cdc2/cyclinB, sequence (P14635 whole entry partner, species assumed): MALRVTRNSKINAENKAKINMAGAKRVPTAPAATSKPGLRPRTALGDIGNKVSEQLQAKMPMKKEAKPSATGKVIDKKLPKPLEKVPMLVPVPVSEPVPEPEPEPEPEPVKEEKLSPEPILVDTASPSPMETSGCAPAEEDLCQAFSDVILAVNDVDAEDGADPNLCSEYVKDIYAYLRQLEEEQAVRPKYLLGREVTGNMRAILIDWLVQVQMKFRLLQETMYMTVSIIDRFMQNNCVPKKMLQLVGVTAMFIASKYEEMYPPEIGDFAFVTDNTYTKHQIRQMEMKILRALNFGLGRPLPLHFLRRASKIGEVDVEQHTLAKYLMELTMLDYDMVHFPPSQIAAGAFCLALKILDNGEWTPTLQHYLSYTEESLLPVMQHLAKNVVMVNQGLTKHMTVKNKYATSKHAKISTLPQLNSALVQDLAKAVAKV
T1 sequence (P11362 478-767 limits assumed): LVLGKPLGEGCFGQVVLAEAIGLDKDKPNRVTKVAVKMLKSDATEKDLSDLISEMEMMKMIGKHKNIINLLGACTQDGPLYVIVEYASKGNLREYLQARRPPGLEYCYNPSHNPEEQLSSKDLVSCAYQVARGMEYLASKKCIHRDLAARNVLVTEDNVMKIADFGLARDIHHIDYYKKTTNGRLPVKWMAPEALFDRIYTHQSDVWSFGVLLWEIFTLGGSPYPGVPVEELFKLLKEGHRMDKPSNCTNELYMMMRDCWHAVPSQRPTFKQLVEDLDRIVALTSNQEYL
N-terminal truncated Wee 1, sequence (P30291 299-569 limits assumed): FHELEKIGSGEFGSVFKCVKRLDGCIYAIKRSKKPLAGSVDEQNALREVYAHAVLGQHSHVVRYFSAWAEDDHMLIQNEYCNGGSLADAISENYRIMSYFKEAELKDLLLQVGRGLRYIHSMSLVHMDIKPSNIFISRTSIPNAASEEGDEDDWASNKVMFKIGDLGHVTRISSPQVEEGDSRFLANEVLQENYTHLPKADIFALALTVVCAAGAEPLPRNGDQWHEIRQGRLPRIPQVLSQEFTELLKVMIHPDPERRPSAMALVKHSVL
cdk4/cyclin D1 complex, sequence (P11802 whole entry, species assumed): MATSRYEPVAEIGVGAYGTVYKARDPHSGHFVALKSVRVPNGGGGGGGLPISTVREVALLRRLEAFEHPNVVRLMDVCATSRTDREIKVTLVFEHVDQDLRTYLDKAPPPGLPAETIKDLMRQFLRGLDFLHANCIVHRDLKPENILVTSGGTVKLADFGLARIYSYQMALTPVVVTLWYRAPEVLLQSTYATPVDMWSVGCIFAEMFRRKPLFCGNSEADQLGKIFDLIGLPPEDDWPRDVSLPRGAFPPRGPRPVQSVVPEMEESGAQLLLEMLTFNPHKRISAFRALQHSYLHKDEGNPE
cdk4/cyclin D1 complex, sequence (P24385 whole entry partner, species assumed): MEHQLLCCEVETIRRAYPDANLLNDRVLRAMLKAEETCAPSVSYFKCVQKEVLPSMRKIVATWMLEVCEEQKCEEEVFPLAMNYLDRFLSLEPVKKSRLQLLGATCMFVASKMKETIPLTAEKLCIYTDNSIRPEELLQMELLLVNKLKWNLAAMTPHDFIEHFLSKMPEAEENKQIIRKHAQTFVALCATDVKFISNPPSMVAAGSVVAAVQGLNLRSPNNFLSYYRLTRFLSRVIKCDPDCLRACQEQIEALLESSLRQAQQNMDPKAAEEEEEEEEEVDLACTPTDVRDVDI
C-src kinase, sequence (P12931 whole entry, the tested form may be a part): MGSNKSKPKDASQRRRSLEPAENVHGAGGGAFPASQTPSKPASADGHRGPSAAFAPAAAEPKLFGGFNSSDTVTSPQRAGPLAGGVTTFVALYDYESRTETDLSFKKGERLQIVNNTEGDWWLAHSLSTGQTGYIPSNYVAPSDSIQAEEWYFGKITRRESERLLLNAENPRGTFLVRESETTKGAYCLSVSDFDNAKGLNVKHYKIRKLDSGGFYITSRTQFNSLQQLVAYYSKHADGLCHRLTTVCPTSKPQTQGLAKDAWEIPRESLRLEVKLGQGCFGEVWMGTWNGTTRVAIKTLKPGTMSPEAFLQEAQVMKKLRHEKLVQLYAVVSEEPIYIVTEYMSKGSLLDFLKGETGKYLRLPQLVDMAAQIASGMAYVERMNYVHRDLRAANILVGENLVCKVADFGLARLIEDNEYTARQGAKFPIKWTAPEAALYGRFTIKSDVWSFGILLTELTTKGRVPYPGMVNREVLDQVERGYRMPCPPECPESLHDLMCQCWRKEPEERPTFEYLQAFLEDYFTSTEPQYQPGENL

Turning to `O=c1cnc2cnc(Nc3ccc(N4CCOCC4)cc3)nc2n1C1CCCC1` [Compound 7, 8-Cyclopentyl-2-[[4-(morpholin-4-yl)phenyl]amino]-8H-pteridin-7-one], the melting point is 182 to 184 °C. For the same compound, the IC50 in series [1] was greater than 50 µM. Moreover, the IC50 in series [2] came out at 0.65 µM. Besides, the IC50 in series [3] worked out at 0.064 µM. The compound also registered an IC50 in series [4] of 8.47 µM. Further, in series [5] (setting [9]), the inhibition at 5 µM worked out at 33%. Besides, the IC50 in [6] amounted to 0.06 µM. The IC50 in series [7] was 12 µM.
With `CC(C)(C)OC(=O)N1CCN(c2ccc(Nc3ncc4ncc(=O)n(C5CCCC5)c4n3)cc2)CC1` [Compound 52, 2-[[4-[4(tert-Butoxycarbonyl)piperazin-1-yl]phenyl]amino]-8-cyclopentyl-8H-pteridin-7-one], the melting point lay within 215 to 217 °C. Moreover, the IC50 in series [2] stood at 4.5 µM. For the same compound, the IC50 in series [3] turned out to be 0.53 µM. This compound showed an IC50 in series [4] greater than 50 µM. In addition, the IC50 in series [6] turned out to be 1.8 µM.
`NC1CCN(c2ccc(Nc3ncc4ncc(=O)n(C5CCCC5)c4n3)cc2)C1` (stereo not shown) [Compound 17, 2-[[4-(3-Aminopyrrolidin-1-yl)phenyl]amino]-8-cyclopentyl-8H-pteridin-7-one]: the IC50 in series [8] was 0.4 µM; in series [2], 1.9 µM; in [3], 0.094 µM; in [6], 0.0435 µM; in series [7], 2.19 µM.
As to `O=c1cnc2cnc(Nc3ccc(N4CCNCC4)cc3)nc2n1C1CCCC1` [Compound 16, 8-Cyclopentyl-2-[[4-(piperazin-1-yl)phenyl]amino]-8H-pteridin-7-one], the IC50 is 0.75 µM in [8]; 0.61 µM in [2]; 0.18 µM in series [3]; 3.3 µM in series [4]; 0.007 µM in series [6].
On to `Cc1nc2cnc(Nc3ccc(N4CCOCC4)cc3)nc2n(C2CCCC2)c1=O` [Compound 10, 8-Cyclopentyl-6-methyl-2-[[4-(morpholin-4-yl)phenyl]amino]-8H-pteridin-7-one], for which the melting point lay within 230 to 234 °C. For the same compound, in series [1], the IC50 is greater than 50 µM. The IC50 in series [2] came to 8 µM. Further, in series [3], the concentration for half-maximal inhibition (IC50) was determined as 1.84 µM. For the same compound, half-maximal inhibition in series [4] (IC50) was put at 34 µM. In addition, in series [5] (@ 50 (unit μm), read-out: FGF % @ concentration), the inhibition at 50 µM is 57%. For the same compound, in [6], the IC50 is 0.44 µM. This compound also gave an IC50 in [7] greater than 50 µM.
As to `O=c1cnc2cnc(Nc3ccncc3)nc2n1C1CCCC1` [Compound 11, 8-Cyclopentyl-2-[(pyridin-4-yl)amino]-8H-pteridin-7-one], the melting point was 236 to 238 °C. Also, the IC50 in series [1] is greater than 50 µM. Further, the IC50 in series [8] was determined as 0.354 µM. Besides, the IC50 in series [2] was found to be 0.05 µM. Also, in series [3], the IC50 turned out to be 0.036 µM. In series [4], this compound registered an IC50 of 11 µM. In addition, the inhibition at 5 µM in series [5] (setting [9]) worked out at 31%. In series [6], the IC50 turned out to be 1.25 µM. Further, the IC50 in [7] was greater than 50 µM.
For `CN1CCN(c2ccc(Nc3ncc4ncc(=O)n(C5CCCC5)c4n3)cc2)CC1` [Compound 8, 8-Cyclopentyl-2-[[4-(4methylpiperazin-1-yl)phenyl]amino]-8H-pteridin-7-one], the melting point is 208 to 211 °C. Moreover, the IC50 in series [1] is greater than 50 µM. Moreover, the IC50 in series [2] was found to be 0.95 µM. The IC50 in series [3] was 0.26 µM. Further, in [4], the IC50 worked out at 3.35 µM. The inhibition at 0.5 µM in series [5] (setting [9]) is 41%. Besides, the 50% inhibitory concentration (IC50) in [6] is 0.041 µM. The IC50 in series [7] was 6 µM.
`Cc1nc2cnc(Nc3ccc(N4CCN(C)CC4)cc3)nc2n(C2CCCC2)c1=O` [Compound 9, 8-Cyclopentyl-6methyl-2-[[4-(4-methylpiperazin-1-yl)phenyl]amino]-8H-pteridin-7-one] gave a melting point of 210 to 211 °C. Further, in series [1], the IC50 is greater than 50 µM. The IC50 in series [2] is 41 µM. Moreover, the IC50 in series [3] was found to be 2.78 µM. Also, 3 µM corresponded to half-maximal inhibition in series [4] (IC50). Moreover, in [5] (setting [9]), the inhibition at 0.5 µM is 41%. The IC50 in [6] was found to be 0.047 µM. The “PDGF % @ concentration” value in series [7] (@ 5 (unit μm)) came to 59% @ 5.
The compound `Cn1c(=O)c(-c2c(Cl)cccc2Cl)nc2cnc(Nc3ccc(N4CCOCC4)cc3)nc21` [Compound 2, 6-(2,6-Dichlorophenyl)-8-methyl-2-[[4-(morpholin-4-yl)phenyl]amino]-8H-pteridin-7-one] had a melting point of 292 to 293 °C. In series [1], the IC50 was 0.144 µM. Besides, in series [4], the midpoint of inhibition, the IC50, lay at 0.057 µM. Also, the half-inhibitory concentration (IC50) in [5] is greater than 50 µM. The same compound registered an IC50 in series [7] of 7.7 µM.
